According to US7521396B2, “Substituted (thioxo)carbonylaminophenyluracils” (Bayer CropScience AG, priority 2002, dated 2009):
Read-outs that look alike come from different tables or passages of the source. Marks after values point to notes of the source that are not given here.

What was measured:
[1] = tested on: weeds; assay: Post-emergence test (Example B), damage to weeds; format: in vivo; details: test plants of 5-15 cm sprayed, rated after three weeks
Description: (§1) To produce a suitable preparation of active compound, 1 part by weight of active compound is mixed with the stated amount of solvent, the stated amount of emulsifier is added and the concentrate is diluted with water to the desired concentration.
Test plants of a height of 5-15 cm are sprayed with the preparation of active compound such that the particular amounts of active compound desired are applied per unit area. The concentration of the spray liquor is chosen such that the particular amounts of active compound desired are applied in 1000 l of water/ha.
After three weeks, the degree of damage to the plants is rated in % damage in comparison to the development of the untreated control.
The figures denote: • 0%=no effect (like untreated control) • 100%=total destruction

[2] = logP by HPLC on reversed-phase column (C 18), EEC Directive 79/831 Annex V.A8; format: physicochemical
[3] = tested on: weeds; assay: Pre-emergence test (Example A), damage to weeds; format: in vivo; details: soil sprayed 24 hours after sowing, rated after three weeks
Description: as §1
Seeds of the test plants are sown in normal soil. After 24 hours, the soil is sprayed with the preparation of active compound such that the particular amount of active compound desired is applied per unit area. The concentration of active compound in the spray liquor is chosen such that the particular amount of active compound desired is applied in 1000 liters of water per hectare.
After three weeks, the degree of damage to the plants is rated in % damage in comparison to the development of the untreated control. The figures denote: • 0%=no effect (like untreated control) • 100%=total destruction

[4] = a) acidic range: 0.1% aqueous phosphoric acid, acetonitrile gradient, 43° C.

Row | logP [2] | Compound | activity against weeds (degree of damage) [1] | activity against weeds (degree of damage) [3] | logP [2, 4]
1 | logP = 2.63^a) | Cn1c(C(F)(F)F)cc(=O)n(-c2cc(NC(=O)N3CCCO3)c(Br)cc2F)c1=O [Example 28] | strong activity | strong activity | –
2 | logP = 2.51^a) | Cn1ccsc1=NC(=O)Nc1cc(-n2c(=O)cc(C(F)(F)F)n(C)c2=O)c(F)cc1Cl [Example 32] | strong activity | strong activity | –
3 | logP = 2.88^a) | CN(Cc1ccco1)C(=O)Nc1cc(-n2c(=O)cc(C(F)(F)F)n(C)c2=O)c(F)cc1Cl [Example 44] | strong activity | strong activity | –
4 | logP = 2.54^a) | CCOC(=O)CN(C)C(=O)Nc1cc(-n2c(=O)cc(C(F)(F)F)n(C)c2=O)c(F)cc1Br [Example 122] | – | – | –
5 | logP = 2.79^a) | CCOC(=O)COC(=O)Nc1cc(-n2c(=O)cc(C(F)(F)F)n(C)c2=O)c(F)cc1Br [Example 125] | – | – | –
6 | logP = 2.99^a) | CCON(C)C(=O)Nc1cc(-n2c(=O)cc(C(F)(F)F)n(C)c2=O)c(F)cc1Cl [Example 68] | – | – | –
7 | logP = 2.95^a) | CN(Cc1ccco1)C(=O)Nc1cc(-n2c(=O)cc(C(F)(F)F)n(C)c2=O)c(F)cc1Br [Example 37] | strong activity | strong activity | –
8 | logP = 2.59^a) | Cn1ccsc1=NC(=O)Nc1cc(-n2c(=O)cc(C(F)(F)F)n(C)c2=O)c(F)cc1Br [Example 31] | strong activity | strong activity | –
9 | logP = 2.52^a) | CN1CCN(C(=O)Nc2cc(-n3c(=O)cc(C(F)(F)F)n(C)c3=O)c(F)cc2Cl)C1=O [Example 51] | – | – | –
10 | logP = 2.38^a) | Cn1c(C(F)(F)F)cc(=O)n(-c2cc(NC(=O)N3CCCS3(=O)=O)c(Cl)cc2F)c1=O [Example 102] | – | – | –
11 | logP = 2.56^a) | CON(C)C(=O)N(c1cc(-n2c(=O)cc(C(F)(F)F)n(C)c2=O)c(F)cc1Cl)S(C)(=O)=O [Example 109] | – | – | –
12 | logP = 3.41^a) | CCON(CC)C(=O)Nc1cc(-n2c(=O)cc(C(F)(F)F)n(C)c2=O)c(F)cc1Br [Example 72] | – | – | –
13 | logP = 2.96^a) | Cn1c(C(F)(F)F)cc(=O)n(-c2cc(NC(=O)N3CCCCO3)c(Br)cc2F)c1=O [Example 63] | – | – | –
14 | logP = 2.70^a) | CCOC(=O)C1CCCN(C(=O)Nc2cc(-n3c(=O)cc(C(F)(F)F)n(C)c3=O)c(F)cc2C#N)C1 (stereo not shown) [Example 133] | – | – | –
15 | logP = 1.74^a) | CC(=O)NC1CCN(C(=O)Nc2cc(-n3c(=O)cc(C(F)(F)F)n(C)c3=O)c(F)cc2Cl)C1 (stereo not shown) [Example 94] | – | – | –
16 | logP = 3.06^a) | CCON(C)C(=O)Nc1cc(-n2c(=O)cc(C(F)(F)F)n(C)c2=O)c(F)cc1Br [Example 69] | – | – | –
17 | logP = 2.62^a) | CCOC(=O)CONC(=O)Nc1cc(-n2c(=O)cc(C(F)(F)F)n(C)c2=O)c(F)cc1Br [Example 105] | – | – | –
18 | logP = 1.81^a) | Cn1c(C(F)(F)F)cc(=O)n(-c2cc(NC(=O)N3CCC(O)CC3)c(Br)cc2F)c1=O [Example 118] | – | – | –
19 | logP = 3.02^a) | Cn1c(C(F)(F)F)cc(=O)n(-c2cc(NC(=O)N3CCCCCC3)c(Cl)cc2F)c1=O [Example 98] | – | – | –
20 | logP = 3.10^a) | Cn1c(C(F)(F)F)cc(=O)n(-c2cc(NC(=O)N3CCCCCC3)c(Br)cc2F)c1=O [Example 99] | – | – | –
21 | logP = 2.76^a) | CN1CCCN(C(=O)Nc2cc(-n3c(=O)cc(C(F)(F)F)n(C)c3=O)c(F)cc2Cl)C1=O [Example 56] | – | – | –
22 | logP = 1.72^a) | Cn1c(C(F)(F)F)cc(=O)n(-c2cc(NC(=O)N3CCC(O)C3)c(Cl)cc2F)c1=O (stereo not shown) [Example 113] | – | – | –

The remaining lines, values behind:

Row | Compound | logP [2] | activity against weeds (degree of damage) [1] | activity against weeds (degree of damage) [3] | logP [2, 4]
23 | Cn1c(C(F)(F)F)cc(=O)n(-c2cc(NC(=O)N3CCCO3)c(Cl)cc2F)c1=O [Example 24] | logP = 2.58^a) | strong activity | strong activity | –
24 | CN1CCCN(C(=O)Nc2cc(-n3c(=O)cc(C(F)(F)F)n(C)c3=O)c(F)cc2Br)C1=O [Example 7] | logP = 2.79^a) | strong activity | strong activity | –
25 | CONC(=O)Nc1cc(-n2c(=O)cc(C(F)(F)F)n(C)c2=O)c(F)cc1Br [Example 9] | logP = 2.19^a) | strong activity | strong activity | –
26 | CCN1CCN(C(=O)Nc2cc(-n3c(=O)cc(C(F)(F)F)n(C)c3=O)c(F)cc2Br)C1=O [Example 6] | logP = 2.85^a) | strong activity | strong activity | –
27 | C=CCONC(=O)Nc1cc(-n2c(=O)cc(C(F)(F)F)n(C)c2=O)c(F)cc1Br [Example 26] | logP = 2.67^a) | strong activity | strong activity | –
28 | COC(=O)[C@@H]1CCCN1C(=O)Nc1cc(-n2c(=O)cc(C(F)(F)F)n(C)c2=O)c(F)cc1Br [Example 33] | logP = 2.52^a) | strong activity | – | –
29 | CCOC(=O)C1CCN(C(=O)Nc2cc(-n3c(=O)cc(C(F)(F)F)n(C)c3=O)c(F)cc2Br)CC1 [Example 36] | logP = 2.88^a) | strong activity | – | –
30 | CCOC(=O)C1CCN(C(=O)Nc2cc(-n3c(=O)cc(C(F)(F)F)n(C)c3=O)c(F)cc2Cl)CC1 [Example 42] | logP = 2.84^a) | strong activity | – | –
31 | CCONC(=O)Nc1cc(-n2c(=O)cc(C(F)(F)F)n(C)c2=O)c(F)cc1Cl [Example 27] | logP = 2.45^a) | strong activity | strong activity | –
32 | Cn1c(C(F)(F)F)cc(=O)n(-c2cc(NC(=O)NCCC#N)c(Br)cc2F)c1=O [Example 20] | – | – | strong activity | logP = 2.08^a)
33 | CON(C)C(=O)Nc1cc(-n2c(=O)cc(C(F)(F)F)n(C)c2=O)c(F)cc1Cl [Example 21] | logP = 2.60^a) | strong activity | strong activity | –
34 | CCOC(=O)C(C)SC(=O)Nc1cc(-n2c(=O)cc(C(F)(F)F)n(C)c2=O)c(F)cc1Br (stereo not shown) [Example 17] | logP = 3.15^a) | – | – | –
35 | Cn1c(C(F)(F)F)cc(=O)n(-c2cc(NC(=O)SC3=NCCS3)c(Cl)cc2F)c1=O [Example 11] | logP = 3.50^a) | – | – | –
36 | CC1CN(C(=O)Nc2cc(-n3c(=O)cc(C(F)(F)F)n(C)c3=O)c(F)cc2Cl)CC(C)O1 (stereo not shown) [Example 119] | logP = 2.50^a) | – | – | –
37 | CCCN(C(=O)Nc1cc(-n2c(=O)cc(C(F)(F)F)n(C)c2=O)c(F)cc1Br)C(C)C [Example 38] | logP = 2.79^a) | strong activity | strong activity | –
38 | Cn1c(C(F)(F)F)cc(=O)n(-c2cc(NC(=O)SC3=NCCS3)c(Br)cc2F)c1=O [Example 16] | logP = 3.53^a) | – | – | –
39 | CCOC(=O)C(C)SC(=O)Nc1cc(-n2c(=O)cc(C(F)(F)F)n(C)c2=O)c(F)cc1Cl (stereo not shown) [Example 12] | logP = 3.11^a) | – | – | –
40 | Cn1c(C(F)(F)F)cc(=O)n(-c2cc(NC(=O)N3CCC4(CC3)OCCCO4)c(Cl)cc2F)c1=O [Example 86] | logP = 2.29^a) | – | – | –
41 | CCOC(=O)CSC(=O)Nc1cc(-n2c(=O)cc(C(F)(F)F)n(C)c2=O)c(F)cc1Cl [Example 13] | logP = 2.80^a) | – | – | –
42 | Cn1c(C(F)(F)F)cc(=O)n(-c2cc(NC(=O)N3CCOCC3)c(Br)cc2F)c1=O [Example 41] | logP = 2.16^a) | strong activity | – | –
43 | CCOC(=O)CSC(=O)Nc1cc(-n2c(=O)cc(C(F)(F)F)n(C)c2=O)c(F)cc1Br [Example 18] | logP = 2.90^a) | – | – | –
44 | C=CCONC(=O)Nc1cc(-n2c(=O)cc(C(F)(F)F)n(C)c2=O)c(F)cc1Cl [Example 22] | logP = 2.60^a) | – | strong activity | –
45 | Cn1c(C(F)(F)F)cc(=O)n(-c2cc(NC(=O)N3CCC(=O)CC3)c(Cl)cc2F)c1=O [Example 92] | – | – | – | logP = 1.93^a)
46 | CC1CN(C(=O)Nc2cc(-n3c(=O)cc(C(F)(F)F)n(C)c3=O)c(F)cc2Br)CC(C)O1 (stereo not shown) [Example 120] | logP = 2.55^a) | – | – | –
47 | Cn1c(C(F)(F)F)cc(=O)n(-c2cc(NC(=O)N3CCOCC3)c(Cl)cc2F)c1=O [Example 49] | logP = 2.11^a) | – | strong activity | –
48 | COC(=O)[C@@H]1CCCN1C(=O)Nc1cc(-n2c(=O)cc(C(F)(F)F)n(C)c2=O)c(F)cc1Cl [Example 34] | logP = 2.46^a) | strong activity | – | –
49 | Cn1c(C(F)(F)F)cc(=O)n(-c2cc(NC(=O)N3CCC4(CC3)OCCO4)c(Cl)cc2F)c1=O [Example 84] | logP = 2.29^a) | – | – | –
50 | C=CCN(C(=O)N(C)OC)c1cc(-n2c(=O)cc(C(F)(F)F)n(C)c2=O)c(F)cc1Cl [Example 106] | – | – | – | logP = 2.96^a)
51 | Cn1c(C(F)(F)F)cc(=O)n(-c2cc(NC(=O)N3CCC4(CC3)OCCO4)c(Br)cc2F)c1=O [Example 85] | logP = 2.35^a) | – | – | –
